Our source for the IC50 values is patent US20260022142A1, “MACROCYCLIC IMMUNOMODULATORS” (Bristol-Myers Squibb Company, priority 2022, published 2026).

Bridge positions count the residues as written; N and C are the ends. Square brackets hold non-standard residues; d marks the D form. Peptide text beside a SMILES is read from it. * marks the point of attachment. ξ: configuration not given here. Bip = N[C@@H](Cc1ccc(-c2ccccc2)cc1)C(=O)O; Phe(3-Me) = Cc1cccc(C[C@H](N)C(=O)O)c1; Cha = N[C@@H](CC1CCCCC1)C(=O)O; Cit = NC(=O)NCCC[C@H](N)C(=O)O; Pen = CC(C)(S)[C@H](N)C(=O)O; Phg = N[C@H](C(=O)O)c1ccccc1; hCys = N[C@@H](CCS)C(=O)O; Carboxymethyl = O=C(O)C*; Orn = NCCC[C@H](N)C(=O)O; Aun = NCCCCCCCCCCC(=O)O; Dab = NCC[C@H](N)C(=O)O; Dap = NC[C@H](N)C(=O)O; ξT = CC(O)C(N)C(=O)O

The target in the assay is T1, PD-1/PD-L1 interaction (PE-labeled human PD-L1-Ig binding to Jurkat cell line over-expressing human PD-1) (Homo sapiens, UniProt Q15116).
T1 construct: expressed in transfected cells; host or cells: Jurkat
T1 sequence (Q15116 25-288): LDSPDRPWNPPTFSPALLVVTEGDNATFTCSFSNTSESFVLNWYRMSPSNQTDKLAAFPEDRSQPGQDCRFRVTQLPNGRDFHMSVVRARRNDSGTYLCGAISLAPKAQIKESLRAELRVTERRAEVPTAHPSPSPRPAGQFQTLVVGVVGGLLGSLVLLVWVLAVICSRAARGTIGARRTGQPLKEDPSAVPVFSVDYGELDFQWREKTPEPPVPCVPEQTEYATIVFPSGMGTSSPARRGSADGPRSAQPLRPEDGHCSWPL
The experiment in a line: Jurkat-PD-1 Cell Binding High-Content Screening Assay (CBA). The format is cell-based. The following applies: Jurkat cell line over-expressing human PD-1; PE-labeled PD-L1-Ig 20 nM final; read-out: Jurkat hPD1-PDL1 IC50. The essentials: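 Jurkat-hPD-1 cells, DMEM/10% FCS; cpd 2 h 37° C; PE-PD-L1-Ig 20 nM final, 1 h; 4% PFA fix + Hoechst 33342, 3× dPBS wash; high-content imaging read-out.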
As for `Cc1cccc(C[C@@H]2NC(=O)[C@H](CC(=O)O)NC(=O)[C@H](Cc3ccc(OCC(=O)O)cc3)NC(=O)[C@H](CN)NC(=O)CSC[C@@H](C(=O)N[C@@H](CCN)C(=O)NCCCCCCCCCCC(=O)O)NC(=O)[C@@H](CCC(N)=O)NC(=O)[C@H](C(C)C)NC(=O)[C@H](CC3CCCCC3)NC(=O)[C@H](CCN)NC(=O)[C@@H](CC(C)C)NC(=O)[C@H](CCCN)NC(=O)[C@H](Cc3ccc(O)cc3)NC(=O)[C@H](Cc3ccc(-c4ccccc4)cc3)NC(=O)[C@H](CC(C)C)NC2=O)c1` [Compound 2769] ({CH2CO}-[Dap]Y(Carboxymethyl)D[Phe(3-Me)]L[Bip]Y[Orn][dL][Dab][Cha]V[dQ]C[Dab][Aun]-OH; thioether N-14), the 50% inhibitory concentration (IC50) (commonly the concentration needed to halve the response being measured) amounted to 60.7 nM.
Under `Cc1cccc(C[C@@H]2NC(=O)[C@H](CC(=O)O)NC(=O)[C@H](Cc3ccc(OCC(=O)O)cc3)NC(=O)[C@H](CN)NC(=O)CSC[C@@H](C(=O)N[C@@H](CCN)C(=O)NCCCCCCCCCCC(=O)O)NC(=O)[C@@H](CCC(N)=O)NC(=O)[C@H](C(C)C)NC(=O)[C@H](CC(C)C)NC(=O)[C@H](CCN)NC(=O)[C@@H](CC(C)C)NC(=O)[C@H](CCCN)NC(=O)[C@H](Cc3ccc(O)cc3)NC(=O)[C@H](Cc3ccc(-c4ccccc4)cc3)NC(=O)[C@H](C(C)C)NC2=O)c1` [Compound 2770] ({CH2CO}-[Dap]Y(Carboxymethyl)D[Phe(3-Me)]V[Bip]Y[Orn][dL][Dab]LV[dQ]C[Dab][Aun]-OH; thioether N-14) stands 37.8 nM.
Under `Cc1cccc(C[C@@H]2NC(=O)[C@H](CC(=O)O)NC(=O)[C@H](Cc3ccc(OCC(=O)O)cc3)NC(=O)[C@H](CN)NC(=O)CSC[C@@H](C(=O)N[C@@H](CCN)C(=O)NCCCCCCCCCCC(=O)O)NC(=O)[C@@H]([C@H](C)O)NC(=O)[C@H](C(C)C)NC(=O)[C@H](CC(C)C)NC(=O)[C@H](CCN)NC(=O)[C@@H](CC(C)C)NC(=O)[C@H](CCCN)NC(=O)[C@H](Cc3ccc(O)cc3)NC(=O)[C@H](Cc3ccc(-c4ccccc4)cc3)NC(=O)[C@H](C(C)C)NC2=O)c1` [Compound 2771] ({CH2CO}-[Dap]Y(Carboxymethyl)D[Phe(3-Me)]V[Bip]Y[Orn][dL][Dab]LV[dT]C[Dab][Aun]-OH; thioether N-14) stands 39.5 nM.
With `Cc1cccc(C[C@@H]2NC(=O)[C@H](CC(=O)O)NC(=O)[C@H](Cc3ccc(OCC(=O)O)cc3)NC(=O)[C@H](CN)NC(=O)CSC[C@@H](C(=O)N[C@@H](CCN)C(=O)NCCCCCCCCCCC(=O)O)NC(=O)[C@H](c3ccccc3)NC(=O)[C@H](C(C)C)NC(=O)[C@H](CC(C)C)NC(=O)[C@H](CCN)NC(=O)[C@@H](CC(C)C)NC(=O)[C@H](CCCN)NC(=O)[C@H](Cc3ccc(O)cc3)NC(=O)[C@H](Cc3ccc(-c4ccccc4)cc3)NC(=O)[C@H](C(C)C)NC2=O)c1` [Compound 2772] ({CH2CO}-[Dap]Y(Carboxymethyl)D[Phe(3-Me)]V[Bip]Y[Orn][dL][Dab]LV[Phg]C[Dab][Aun]-OH; thioether N-14), the IC50 turned out to be 67.7 nM.
For the compound `Cc1cccc(C[C@@H]2NC(=O)[C@H](CC(=O)O)NC(=O)[C@H](Cc3ccc(O)cc3)NC(=O)[C@H](CC(N)=O)NC(=O)CSC[C@@H](C(=O)N[C@@H](CCN)C(=O)NCCCCCCCCCCC(=O)O)NC(=O)[C@H](CCC(=O)O)NC(=O)[C@H](C(C)C)NC(=O)[C@H](CC(C)C)NC(=O)[C@H](CCN)NC(=O)[C@@H](CC(C)C)NC(=O)[C@H](CCCN)NC(=O)[C@H](CCCNC(N)=O)NC(=O)[C@H](Cc3ccc(-c4ccccc4)cc3)NC(=O)[C@H](C(C)C)NC2=O)c1` [Compound 2773] ({CH2CO}-NYD[Phe(3-Me)]V[Bip][Cit][Orn][dL][Dab]LVEC[Dab][Aun]-OH; thioether N-14), the half-maximal inhibitory concentration (IC50) was found to be 22 nM.
On to `Cc1cccc(C[C@@H]2NC(=O)[C@H](CC(=O)O)NC(=O)[C@H](Cc3ccc(O)cc3)NC(=O)[C@H](CC(N)=O)NC(=O)CSC[C@@H](C(=O)N[C@@H](CCCN)C(=O)NCCCCCCCCCCC(=O)O)NC(=O)C(C(C)O)NC(=O)[C@H](C(C)C)NC(=O)[C@H](CC(C)C)NC(=O)[C@H](CCN)NC(=O)[C@@H](CC(C)C)NC(=O)[C@H](CCCN)NC(=O)[C@H](CCCNC(N)=O)NC(=O)[C@H](Cc3ccc(-c4ccccc4)cc3)NC(=O)[C@H](C(C)C)NC2=O)c1` (stereo partly drawn) [Compound 2774] ({CH2CO}-NYD[Phe(3-Me)]V[Bip][Cit][Orn][dL][Dab]LV[ξT]C[Orn][Aun]-OH; thioether N-14), for which the half-inhibitory concentration (IC50) came out at 71.9 nM.
The result for `Cc1cccc(C[C@@H]2NC(=O)[C@H](CC(=O)O)NC(=O)[C@H](Cc3ccccc3)NC(=O)[C@H](CC(N)=O)NC(=O)CSCC[C@@H](C(=O)N[C@@H](CCCN)C(=O)NCCCCCCCCCCC(=O)O)NC(=O)[C@H](CCC(=O)O)NC(=O)[C@H](C(C)C)NC(=O)[C@H](CC(C)C)NC(=O)[C@H](CCN)NC(=O)[C@@H](CC(C)C)NC(=O)[C@H](CCCN)NC(=O)[C@H](CCCNC(N)=O)NC(=O)[C@H](Cc3ccc(-c4ccccc4)cc3)NC(=O)[C@H](C(C)C)NC2=O)c1` [Compound 2775] ({CH2CO}-NFD[Phe(3-Me)]V[Bip][Cit][Orn][dL][Dab]LVE[hCys][Orn][Aun]-OH; thioether N-14) reads 173 nM; that for `CC(C)C[C@H]1NC(=O)[C@H](CCCN)NC(=O)[C@H](C(C)C)NC(=O)[C@H](Cc2ccc(-c3ccccc3)cc2)NC(=O)[C@H](C(C)C)NC(=O)[C@H](Cc2c[nH]c3ccccc23)NC(=O)[C@H](CC(=O)O)NC(=O)[C@H](Cc2ccc(OCC(=O)O)cc2)NC(=O)[C@H](CN)NC(=O)CSC[C@@H](C(=O)N[C@@H](CCCN)C(=O)NCCCCCCCCCCC(=O)O)NC(=O)[C@H](CCC(=O)O)NC(=O)[C@H](C(C)C)NC(=O)[C@H](CC2CCCCC2)NC(=O)[C@H](Cc2c[nH]cn2)NC1=O` [Compound 2776] ({CH2CO}-[Dap]Y(Carboxymethyl)DWV[Bip]V[Orn][dL]H[Cha]VEC[Orn][Aun]-OH; thioether N-14), 54.1 nM; that for `Cc1cccc(C[C@@H]2NC(=O)[C@H](CC(=O)O)NC(=O)[C@H](Cc3ccc(OCC(=O)O)cc3)NC(=O)[C@H](CCCNC(=N)N)NC(=O)CSC[C@@H](C(=O)N[C@@H](CCN)C(=O)NCCCCCCCCCCC(=O)O)NC(=O)[C@H]([C@@H](C)O)NC(=O)[C@H](C(C)C)NC(=O)[C@H](CC3CCCCC3)NC(=O)[C@H](CCN)NC(=O)[C@@H](CC(C)C)NC(=O)[C@H](CCN)NC(=O)[C@H](CCCNC(N)=O)NC(=O)[C@H](Cc3ccc(-c4ccccc4)cc3)NC(=O)[C@H](C(C)C)NC2=O)c1` [Compound 2777] ({CH2CO}-RY(Carboxymethyl)D[Phe(3-Me)]V[Bip][Cit][Dab][dL][Dab][Cha]VTC[Dab][Aun]-OH; thioether N-14), 20.1 nM.
With `Cc1cccc(C[C@@H]2NC(=O)[C@H](CC(=O)O)NC(=O)[C@H](Cc3ccc(OCC(=O)O)cc3)NC(=O)[C@H](CCCNC(=N)N)NC(=O)CSC[C@@H](C(=O)N[C@@H](CCN)C(=O)NCCCCCCCCCCC(=O)O)NC(=O)[C@H](CCC(=O)O)NC(=O)[C@H](C(C)C)NC(=O)[C@H](CC3CCCCC3)NC(=O)[C@H](CCN)NC(=O)[C@@H](CC(C)C)NC(=O)[C@H](CCN)NC(=O)[C@H](CCCNC(N)=O)NC(=O)[C@H](Cc3ccc(-c4ccccc4)cc3)NC(=O)[C@H](C(C)C)NC2=O)c1` [Compound 2778] ({CH2CO}-RY(Carboxymethyl)D[Phe(3-Me)]V[Bip][Cit][Dab][dL][Dab][Cha]VEC[Dab][Aun]-OH; thioether N-14), the half-inhibitory concentration (IC50) was 8.9 nM.
Under `Cc1cccc(C[C@@H]2NC(=O)[C@H](CC(=O)O)NC(=O)[C@H](Cc3ccc(OCC(=O)O)cc3)NC(=O)[C@H](CCCNC(=N)N)NC(=O)CSC[C@@H](C(=O)N[C@@H](CCCN)C(=O)NCCCCCCCCCCC(=O)O)NC(=O)[C@H](CCC(=O)O)NC(=O)[C@H](C(C)C)NC(=O)[C@H](CC3CCCCC3)NC(=O)[C@H](CCN)NC(=O)[C@@H](CC(C)C)NC(=O)[C@H](CCN)NC(=O)[C@H](CCCNC(N)=O)NC(=O)[C@H](Cc3ccc(-c4ccccc4)cc3)NC(=O)[C@H](C(C)C)NC2=O)c1` [Compound 2780] ({CH2CO}-RY(Carboxymethyl)D[Phe(3-Me)]V[Bip][Cit][Dab][dL][Dab][Cha]VEC[Orn][Aun]-OH; thioether N-14) stands 6.7 nM; under `Cc1cccc(C[C@@H]2NC(=O)[C@H](CC(=O)O)NC(=O)[C@H](Cc3ccc(OCC(=O)O)cc3)NC(=O)[C@H](CN)NC(=O)CSCC[C@@H](C(=O)N[C@@H](C)C(=O)N[C@@H](CCC(=O)O)C(=O)NCCCCCCCCCCC(=O)O)NC(=O)[C@H]([C@@H](C)O)NC(=O)[C@H](C(C)C)NC(=O)[C@H](CC3CCCCC3)NC(=O)[C@H](CCN)NC(=O)[C@@H](CC(C)C)NC(=O)[C@H](CCCN)NC(=O)[C@H](CCCNC(N)=O)NC(=O)[C@H](Cc3ccc(-c4ccccc4)cc3)NC(=O)[C@H](C(C)C)NC2=O)c1` [Compound 2781] ({CH2CO}-[Dap]Y(Carboxymethyl)D[Phe(3-Me)]V[Bip][Cit][Orn][dL][Dab][Cha]VT[hCys]AE[Aun]-OH; thioether N-14), 74.3 nM.
Under `Cc1cccc(C[C@@H]2NC(=O)[C@H](CC(=O)O)NC(=O)[C@H](Cc3ccc(OCC(=O)O)cc3)NC(=O)[C@H](CN)NC(=O)CSC(C)(C)[C@@H](C(=O)N[C@@H](C)C(=O)N[C@@H](CCC(=O)O)C(=O)NCCCCCCCCCCC(=O)O)NC(=O)[C@H]([C@@H](C)O)NC(=O)[C@H](C(C)C)NC(=O)[C@H](CC3CCCCC3)NC(=O)[C@H](CCN)NC(=O)[C@@H](CC(C)C)NC(=O)[C@H](CCCN)NC(=O)[C@H](CCCNC(N)=O)NC(=O)[C@H](Cc3ccc(-c4ccccc4)cc3)NC(=O)[C@H](C(C)C)NC2=O)c1` [Compound 2782] ({CH2CO}-[Dap]Y(Carboxymethyl)D[Phe(3-Me)]V[Bip][Cit][Orn][dL][Dab][Cha]VT[Pen]AE[Aun]-OH; thioether N-14) stands 336 nM.
